Molecular target: T1, hFAAH (Homo sapiens, UniProt O00519)
T1 construct: expressed in transfected cells; host or cells: HEK293-TRex (Invitrogen) stably transfected with hFAAH in the pcDNA5-Tet-off vector, or T84 human colon epithelial cells (endogenous hFAAH); used as a microsomal preparation
T1 sequence (O00519 1-579): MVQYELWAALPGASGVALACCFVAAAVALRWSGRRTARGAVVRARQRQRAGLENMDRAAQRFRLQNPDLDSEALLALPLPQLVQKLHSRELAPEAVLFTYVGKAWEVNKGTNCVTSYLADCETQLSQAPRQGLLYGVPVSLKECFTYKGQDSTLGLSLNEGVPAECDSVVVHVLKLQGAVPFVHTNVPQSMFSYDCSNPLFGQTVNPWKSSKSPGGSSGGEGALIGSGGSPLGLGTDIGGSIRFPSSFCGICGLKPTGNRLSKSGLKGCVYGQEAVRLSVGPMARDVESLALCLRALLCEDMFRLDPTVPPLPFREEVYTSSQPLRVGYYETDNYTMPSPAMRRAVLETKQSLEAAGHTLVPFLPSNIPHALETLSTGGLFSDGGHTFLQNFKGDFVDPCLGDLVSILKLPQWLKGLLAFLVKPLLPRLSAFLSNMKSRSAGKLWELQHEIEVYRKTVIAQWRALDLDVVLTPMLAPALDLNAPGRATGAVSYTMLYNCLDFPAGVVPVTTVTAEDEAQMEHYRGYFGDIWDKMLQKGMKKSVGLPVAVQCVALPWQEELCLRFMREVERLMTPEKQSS
Assay: Fluorimetric assay with hFAAH microsomes (enzymatic, fluorescence based)
Assay type: biochemical
Conditions: compound at 1 uM, AA-AMC substrate
How it was run: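 Microsomes from T84 cells (endogenous hFAAH) or doxycycline-induced HEK293-TRex cells stably expressing hFAAH, 10 μg per well, in 50 mM HEPES pH 7.4, 1 mM EDTA, 1.4 mg/mL BSA with 2 μM AA-AMC. Kinetic fluorescence read (ex 355/em 460 nm, 275 cycles); activity as % inhibition, 7 concentrations in duplicate.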

Structure (SMILES)	inhibition at 1 µM [%]
COC(=O)c1cc(S(=O)(=O)N2Cc3ncnc(Nc4cnc5ccccc5c4)c3C2)oc1C [Compound 62, 2-Methyl-5-[4-(quinolin-3-ylamino)-5,7-dihydro-pyrrolo[3,4-d]pyrimidine-6-sulfonyl]-furan-3-carboxylic acid methyl ester]	> 25
O=S(=O)(Cc1ccccc1)N1Cc2ncnc(Nc3cnc4ccccc4c3)c2C1 [Compound 63, (6-Phenylmethanesulfonyl-6,7-dihydro-5H-pyrrolo[3,4-d]pyrimidin-4-yl)-quinolin-3-yl-amine]	< 25
O=S(=O)(C1CCCCC1)N1Cc2ncnc(Nc3cnc4ccccc4c3)c2C1 [Compound 64, (6-Cyclohexanesulfonyl-6,7-dihydro-5H-pyrrolo[3,4-d]pyrimidin-4-yl)-quinolin-3-yl-amine]	> 50
O=S(=O)(c1ccccc1)N1Cc2ncnc(Nc3cnc4ccccc4c3)c2C1 [Compound 65, (6-Benzenesulfonyl-6,7-dihydro-5H-pyrrolo[3,4-d]pyrimidin-4-yl)-quinolin-3-yl-amine]	> 25
Cc1ncsc1CN1Cc2ncnc(Nc3cnc4ccccc4c3)c2C1 [Compound 66, [6-(4-Methyl-thiazol-5-ylmethyl)-6,7-dihydro-5H-pyrrolo[3,4-d]pyrimidin-4-yl]-quinolin-3-yl-amine]	> 75
Cc1noc(C)c1CN1Cc2ncnc(Nc3cnc4ccccc4c3)c2C1 [Compound 67, [6-(3,5-Dimethyl-isoxazol-4-ylmethyl)-6,7-dihydro-5H-pyrrolo[3,4-d]pyrimidin-4-yl]-quinolin-3-yl-amine]	> 25
COC(=O)c1ccc(S(=O)(=O)N2Cc3ncnc(Nc4cnc5ccccc5c4)c3C2)o1 [Compound 68, 5-[4-(Quinolin-3-ylamino)-5,7-dihydro-pyrrolo[3,4-d]pyrimidine-6-sulfonyl]-furan-2-carboxylic acid methyl ester]	> 75
Cc1ncc(CN2Cc3ncnc(Nc4cnc5ccccc5c4)c3C2)s1 [Compound 69, [6-(2-Methyl-thiazol-5-ylmethyl)-6,7-dihydro-5H-pyrrolo[3,4-d]pyrimidin-4-yl]-quinolin-3-yl-amine]	> 50
O=S(=O)(c1ccccc1OC(F)(F)F)N1Cc2ncnc(Nc3cnc4ccccc4c3)c2C1 [Compound 70, Quinolin-3-yl-[6-(2-trifluoromethoxy-benzenesulfonyl)-6,7-dihydro-5H-pyrrolo[3,4-d]pyrimidin-4-yl]-amine]	> 25
O=S(=O)(c1ccccc1F)N1Cc2ncnc(Nc3cnc4ccccc4c3)c2C1 [Compound 71, [6-(2-Fluoro-benzenesulfonyl)-6,7-dihydro-5H-pyrrolo[3,4-d]pyrimidin-4-yl]-quinolin-3-yl-amine]	> 25
O=S(=O)(c1ccccc1Cl)N1Cc2ncnc(Nc3cnc4ccccc4c3)c2C1 [Compound 72, [6-(2-Chloro-benzenesulfonyl)-6,7-dihydro-5H-pyrrolo[3,4-d]pyrimidin-4-yl]-quinolin-3-yl-amine]	> 50
COc1ccccc1S(=O)(=O)N1Cc2ncnc(Nc3cnc4ccccc4c3)c2C1 [Compound 73, [6-(2-Methoxy-benzenesulfonyl)-6,7-dihydro-5H-pyrrolo[3,4-d]pyrimidin-4-yl]-quinolin-3-yl-amine]	> 25
Cc1nc(C(F)(F)F)ccc1CN1Cc2ncnc(Nc3cnc4ccccc4c3)c2C1 [Compound 74, [6-(2-Methyl-6-trifluoromethyl-pyridin-3-ylmethyl)-6,7-dihydro-5H-pyrrolo[3,4-d]pyrimidin-4-yl]-quinolin-3-yl-amine]	> 25
c1ccc2ncc(Nc3ncnc4c3CN(Cc3cscn3)C4)cc2c1 [Compound 75, Quinolin-3-yl-(6-thiazol-4-ylmethyl-6,7-dihydro-5H-pyrrolo[3,4-d]pyrimidin-4-yl)-amine]	> 25
c1ccc2ncc(Nc3ncnc4c3CN(Cc3nccs3)C4)cc2c1 [Compound 76, Quinolin-3-yl-(6-thiazol-2-ylmethyl-6,7-dihydro-5H-pyrrolo[3,4-d]pyrimidin-4-yl)-amine]	> 25
Cc1csc(CN2Cc3ncnc(Nc4cnc5ccccc5c4)c3C2)n1 [Compound 77, [6-(4-Methyl-thiazol-2-ylmethyl)-6,7-dihydro-5H-pyrrolo[3,4-d]pyrimidin-4-yl]-quinolin-3-yl-amine]	> 50
Cc1cnccc1CN1Cc2ncnc(Nc3cnc4ccccc4c3)c2C1 [Compound 78, [6-(3-Methyl-pyridin-4-ylmethyl)-6,7-dihydro-5H-pyrrolo[3,4-d]pyrimidin-4-yl]-quinolin-3-yl-amine]	> 75

Structure (SMILES)	inhibition at 1 µM [%]
Cc1cccnc1CN1Cc2ncnc(Nc3cnc4ccccc4c3)c2C1 [Compound 79, [6-(3-Methyl-pyridin-2-ylmethyl)-6,7-dihydro-5H-pyrrolo[3,4-d]pyrimidin-4-yl]-quinolin-3-yl-amine]	< 25
Fc1ccccc1CN1Cc2ncnc(Nc3cnc4ccccc4c3)c2C1 [Compound 80, [6-(2-Fluoro-benzyl)-6,7-dihydro-5H-pyrrolo[3,4-d]pyrimidin-4-yl]-quinolin-3-yl-amine]	> 75
c1ccc2ncc(Nc3ncnc4c3CN(Cc3cncs3)C4)cc2c1 [Compound 81, Quinolin-3-yl-(6-thiazol-5-ylmethyl-6,7-dihydro-5H-pyrrolo[3,4-d]pyrimidin-4-yl)-amine]	> 25
O=S(=O)(CCc1ccccc1)N1Cc2ncnc(Nc3cnc4ccccc4c3)c2C1 [Compound 82, [6-(2-Phenyl-ethanesulfonyl)-6,7-dihydro-5H-pyrrolo[3,4-d]pyrimidin-4-yl]-quinolin-3-yl-amine]	< 25
COc1ccccc1CN1Cc2ncnc(Nc3cnc4ccccc4c3)c2C1 [Compound 83, [6-(2-Methoxy-benzyl)-6,7-dihydro-5H-pyrrolo[3,4-d]pyrimidin-4-yl]-quinolin-3-yl-amine]	> 75
Clc1ccccc1CN1Cc2ncnc(Nc3cnc4ccccc4c3)c2C1 [Compound 84, [6-(2-Chloro-benzyl)-6,7-dihydro-5H-pyrrolo[3,4-d]pyrimidin-4-yl]-quinolin-3-yl-amine]	> 75
c1ccc2ncc(Nc3ncnc4c3CN(Cc3ccnc5ccccc35)C4)cc2c1 [Compound 85, Quinolin-3-yl-(6-quinolin-4-ylmethyl-6,7-dihydro-5H-pyrrolo[3,4-d]pyrimidin-4-yl)-amine]	> 50
Cc1ccoc1CN1Cc2ncnc(Nc3cnc4ccccc4c3)c2C1 [Compound 86, [6-(3-Methyl-furan-2-ylmethyl)-6,7-dihydro-5H-pyrrolo[3,4-d]pyrimidin-4-yl]-quinolin-3-yl-amine]	> 75
Cc1cccc(CN2Cc3ncnc(Nc4cnc5ccccc5c4)c3C2)c1C [Compound 87, [6-(2,3-Dimethyl-benzyl)-6,7-dihydro-5H-pyrrolo[3,4-d]pyrimidin-4-yl]-quinolin-3-yl-amine]	> 75
Cc1cccc(C)c1CN1Cc2ncnc(Nc3cnc4ccccc4c3)c2C1 [Compound 88, [6-(2,6-Dimethyl-benzyl)-6,7-dihydro-5H-pyrrolo[3,4-d]pyrimidin-4-yl]-quinolin-3-yl-amine]	> 50
Cc1ccc(C)c(CN2Cc3ncnc(Nc4cnc5ccccc5c4)c3C2)c1 [Compound 89, [6-(2,5-Dimethyl-benzyl)-6,7-dihydro-5H-pyrrolo[3,4-d]pyrimidin-4-yl]-quinolin-3-yl-amine]	> 75
CCc1ccccc1CN1Cc2ncnc(Nc3cnc4ccccc4c3)c2C1 [Compound 90, [6-(2-Ethyl-benzyl)-6,7-dihydro-5H-pyrrolo[3,4-d]pyrimidin-4-yl]-quinolin-3-yl-amine]	> 75
Clc1ncc(CN2Cc3ncnc(Nc4cnc5ccccc5c4)c3C2)s1 [Compound 91, [6-(2-Chloro-thiazol-5-ylmethyl)-6,7-dihydro-5H-pyrrolo[3,4-d]pyrimidin-4-yl]-quinolin-3-yl-amine]	> 50
Cc1ccccc1CN1Cc2ncnc(Nc3cnc4ccccc4c3)c2C1 [Compound 92, [6-(2-Methyl-benzyl)-6,7-dihydro-5H-pyrrolo[3,4-d]pyrimidin-4-yl]-quinolin-3-yl-amine]	> 75
Cc1ccc(CN2Cc3ncnc(Nc4cnc5ccccc5c4)c3C2)c(C)c1 [Compound 93, [6-(2,4-Dimethyl-benzyl)-6,7-dihydro-5H-pyrrolo[3,4-d]pyrimidin-4-yl]-quinolin-3-yl-amine]	> 25
c1ccc2ncc(Nc3ncnc4c3CN(Cc3ccncc3)C4)cc2c1 [Compound 94, (6-Pyridin-4-ylmethyl-6,7-dihydro-5H-pyrrolo[3,4-d]pyrimidin-4-yl)-quinolin-3-yl-amine]	> 75
FC(F)(F)c1ccccc1CN1Cc2ncnc(Nc3cnc4ccccc4c3)c2C1 [Compound 95, Quinolin-3-yl-[6-(2-trifluoromethyl-benzyl)-6,7-dihydro-5H-pyrrolo[3,4-d]pyrimidin-4-yl]-amine]	> 75

From patent US20110257208A1, “COMPOUNDS USEFUL AS FAAH MODULATORS AND USES THEREOF” (priority 2008, published 2011)
